The values that follow come from US12492173B2, “Herbicidal substituted N-tetrazolyl aryl carboxamides” (Bayer Aktiengesellschaft, priority 2019, dated 2025).

Common to all, as to assay type: in vivo
One assay relates to Veronica persica. The assay can be described thus: Post-emergence herbicidal action, VERPE. Also on record: key: % herbicidal action vs untreated; 100 = plants died, 0 = like control. A digest of the protocol: (§1)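 Percent herbicidal effect was rated visually about 3 weeks after treatment, relative to untreated plants (0% = like control, 100% = dead). Compounds, formulated as WP or EC, went on as aqueous spray (600–800 l/ha, 0.2% wetting agent) to one-leaf-stage plants 2–3 weeks post-sowing in sandy loam.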

Another assay has as its system Viola tricolor. Put plainly: Pre-emergence herbicidal action, VIOTR. The following applies: dosage 320 g/ha, scored visually after 3 weeks vs untreated controls (100% = plants have died). A digest of the protocol: (§2)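 Weed seeds sown in sandy loam and covered; WP or EC formulations applied to soil surface as aqueous suspension or emulsion at 600 to 800 l/ha with 0.2% wetting agent. Greenhouse-grown, with damage scored visually after 3 weeks versus untreated controls (0% = like control, 100% = plants dead).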

Assay [1] deals with Stellaria media. Put plainly: Post-emergence herbicidal action, STEME. Also noted: key: % herbicidal action vs untreated; 100 = plants died, 0 = like control. In outline: as §1
Assay [2] deals with Matricaria inodora. Put plainly: Pre-emergence herbicidal action, MATIN. The following applies: dosage 320 g/ha, scored visually after 3 weeks vs untreated controls (100% = plants have died). In outline:
as §2

Assay [3] concerns Stellaria media. The assay can be described thus: Pre-emergence herbicidal action, STEME. The following applies: dosage 320 g/ha, scored visually after 3 weeks vs untreated controls (100% = plants have died). A digest of the protocol:
as §2

Assay [4] concerns Matricaria inodora. Put plainly: Post-emergence herbicidal action, MATIN. Also noted: key: % herbicidal action vs untreated; 100 = plants died, 0 = like control. In outline:
as §1

As to `CCCn1nnnc1NC(=O)c1ccc(C(F)F)c(CSC)c1C` [Example 3-107], the “herbicidal action VERPE” value with Veronica persica (Dosage 80 g/ha) was found to be 100. Also, the “herbicidal activity VIOTR” value in the assay with Viola tricolor was determined as 100%. Moreover, in the assay on Stellaria media [1] (Dosage 80 g/ha), the “herbicidal action STEME” value is reported as 80. Also, the “herbicidal activity MATIN” value in the assay with Matricaria inodora [2] stood at 100%. Moreover, in the assay on Stellaria media [3], the “herbicidal activity STEME” value is listed as 100%. Moreover, the “herbicidal action MATIN” value in the assay with Matricaria inodora [4] (Dosage 80 g/ha) was 90.
Consider `CCCn1nnnc1NC(=O)c1ccc(C(F)(F)F)c(CSC)c1OC` [Example 3-134], for which the “herbicidal action VERPE” value with Veronica persica (Dosage 80 g/ha) was 100. In the assay on Viola tricolor, the “herbicidal activity VIOTR” value was 100%. Also, the “herbicidal action STEME” value in the assay with Stellaria media [1] (Dosage 80 g/ha) was 100. In addition, the “herbicidal activity MATIN” value in the assay on Matricaria inodora [2] stood at 100%. In addition, the “herbicidal activity STEME” value in the assay on Stellaria media [3] was 100%. For the same compound, in the assay on Matricaria inodora [4] (Dosage 80 g/ha), the “herbicidal action MATIN” value is listed as 100.
Take `CCCn1nnnc1NC(=O)c1ccc(C(F)(F)F)c(CSC)c1Cl` [Example 3-296]: the “herbicidal action VERPE” value with Veronica persica (Dosage 80 g/ha) is listed as 100. For the same compound, the “herbicidal activity VIOTR” value with Viola tricolor is recorded as 100%. Moreover, in the assay with Stellaria media [1] (Dosage 80 g/ha), the “herbicidal action STEME” value turned out to be 100. Moreover, the “herbicidal activity MATIN” value with Matricaria inodora [2] worked out at 100%. Also, the “herbicidal activity STEME” value in the assay on Stellaria media [3] is given as 100%. For the same compound, the “herbicidal action MATIN” value in the assay with Matricaria inodora [4] (Dosage 80 g/ha) came to 100.
Regarding `CCCn1nnnc1NC(=O)c1ccc(C(F)(F)F)c(C[S+](C)[O-])c1Cl` (stereo not drawn) [Example 3-297], in the assay with Veronica persica (post-emergence, dosage 80 g/ha), the “herbicidal action VERPE” value is reported as 100%. The “herbicidal activity VIOTR” value in the assay on Viola tricolor is given as 100%. The “herbicidal action STEME” value with Stellaria media [1] (post-emergence, dosage 80 g/ha) was 100%. For the same compound, the “herbicidal activity MATIN” value with Matricaria inodora [2] is given as 100%. Further, in the assay on Stellaria media [3], the “herbicidal activity STEME” value came to 100%. In addition, the “herbicidal action MATIN” value in the assay on Matricaria inodora [4] (post-emergence, dosage 80 g/ha) was determined as 100%.
As to `CCCn1nnnc1NC(=O)c1ccc(C(F)(F)F)c(CSCC)c1Cl` [Example 3-299], the “herbicidal action VERPE” value in the assay on Veronica persica (Dosage 80 g/ha) was 100. Further, the “herbicidal activity VIOTR” value with Viola tricolor is 100%. In addition, the “herbicidal action STEME” value with Stellaria media [1] (Dosage 80 g/ha) is 100. For the same compound, in the assay on Matricaria inodora [2], the “herbicidal activity MATIN” value came out at 100%. The “herbicidal activity STEME” value with Stellaria media [3] was determined as 90%. In the assay with Matricaria inodora [4] (Dosage 80 g/ha), the “herbicidal action MATIN” value worked out at 100.
On to `CCCn1nnnc1NC(=O)c1ccc(C(F)F)c(CSC)c1Cl` [Example 3-320], for which, in the assay with Veronica persica (Dosage 80 g/ha), the “herbicidal action VERPE” value was determined as 100. Moreover, in the assay with Viola tricolor, the “herbicidal activity VIOTR” value was 100%. In addition, the “herbicidal action STEME” value in the assay on Stellaria media [1] (Dosage 80 g/ha) was 100. In the assay with Matricaria inodora [2], the “herbicidal activity MATIN” value was 100%. The “herbicidal activity STEME” value in the assay with Stellaria media [3] turned out to be 100%. Further, the “herbicidal action MATIN” value in the assay with Matricaria inodora [4] (Dosage 80 g/ha) is recorded as 100.
Take `CCCn1nnnc1NC(=O)c1ccc(C(F)(F)F)c(C[S+](C)[O-])c1Br` (stereo not drawn) [Example 3-381]: the “herbicidal action VERPE” value in the assay with Veronica persica (post-emergence, dosage 80 g/ha) was determined as 100%. Moreover, the “herbicidal activity VIOTR” value with Viola tricolor came to 100%. For the same compound, the “herbicidal action STEME” value in the assay with Stellaria media [1] (post-emergence, dosage 80 g/ha) is listed as 100%. Also, the “herbicidal activity MATIN” value with Matricaria inodora [2] came to 100%. Further, the “herbicidal activity STEME” value with Stellaria media [3] came to 90%. In addition, the “herbicidal action MATIN” value with Matricaria inodora [4] (post-emergence, dosage 80 g/ha) is reported as 90%.
On to `CCCn1nnnc1NC(=O)c1ccc(C(F)(F)F)c(CSCC)c1Br` [Example 3-383], for which the “herbicidal action VERPE” value in the assay on Veronica persica (Dosage 80 g/ha) was 100. The “herbicidal activity VIOTR” value in the assay with Viola tricolor came to 100%. Further, the “herbicidal action STEME” value in the assay on Stellaria media [1] (Dosage 80 g/ha) is 100. For the same compound, the “herbicidal activity MATIN” value in the assay on Matricaria inodora [2] worked out at 100%. For the same compound, the “herbicidal activity STEME” value with Stellaria media [3] is 100%. For the same compound, the “herbicidal action MATIN” value in the assay with Matricaria inodora [4] (Dosage 80 g/ha) is recorded as 100.
As to `CCCn1nnnc1NC(=O)c1ccc(C(F)(F)F)c(CS(=O)(=O)CC)c1Br` [Example 3-385], the “herbicidal action VERPE” value with Veronica persica (Dosage 80 g/ha) worked out at 100. In addition, the “herbicidal activity VIOTR” value with Viola tricolor is given as 100%. Besides, the “herbicidal action STEME” value in the assay on Stellaria media [1] (Dosage 80 g/ha) was found to be 100. Further, the “herbicidal activity MATIN” value with Matricaria inodora [2] is listed as 100%. Besides, the “herbicidal activity STEME” value in the assay with Stellaria media [3] was determined as 90%. The “herbicidal action MATIN” value with Matricaria inodora [4] (Dosage 80 g/ha) is recorded as 90.
